Measured values as given in US20130096105A1, “ArylSulfonamide Based Matrix Metalloprotease Inhibitors” (NOVARTIS AG, priority 2008, published 2013).
Read-outs that look alike come from different tables or passages of the source.

Columns and labels:
Gelatinase (MMP-2) = target: T1, Gelatinase (MMP-2) (Homo sapiens, UniProt P08253); assay: Gelatinase (MMP-2) inhibitory activity, fluorogenic peptide substrate cleavage; assay type: biochemical
T1 sequence (P08253 110-660): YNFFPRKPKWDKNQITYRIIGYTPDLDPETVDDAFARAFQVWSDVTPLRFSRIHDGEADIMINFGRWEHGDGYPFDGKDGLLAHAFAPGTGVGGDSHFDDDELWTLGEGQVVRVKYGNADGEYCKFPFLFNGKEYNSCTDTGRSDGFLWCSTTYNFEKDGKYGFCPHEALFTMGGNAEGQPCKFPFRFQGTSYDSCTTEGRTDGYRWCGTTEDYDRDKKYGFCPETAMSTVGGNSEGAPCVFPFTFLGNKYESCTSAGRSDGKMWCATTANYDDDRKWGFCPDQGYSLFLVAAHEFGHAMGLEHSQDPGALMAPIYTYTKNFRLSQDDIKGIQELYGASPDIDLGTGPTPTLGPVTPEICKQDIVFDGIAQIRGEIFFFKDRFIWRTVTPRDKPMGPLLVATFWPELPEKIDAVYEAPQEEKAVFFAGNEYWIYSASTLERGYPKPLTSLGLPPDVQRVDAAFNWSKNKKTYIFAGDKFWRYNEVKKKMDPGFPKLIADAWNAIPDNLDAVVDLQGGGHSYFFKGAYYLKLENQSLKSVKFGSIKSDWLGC
Description: (§1) Gelatinase (MMP-2) inhibitory activities can be determined as follows: Stock solutions of substrate (MCA-Lys-Pro-Leu-Gly-Leu-Dpa-Ala-Arg-NH2) are prepared in DMSO at a concentration of 1.4 mM. Stock solutions of inhibitors (0.03 μM-3 mM) are also prepared in DMSO. The inhibitors are diluted into the assay solutions, and the controls use an equal volume of DMSO so that the final DMSO concentration from the inhibitor and substrate dilutions in all assays is 1.0%. Assays are performed in an assay buffer (100 mM sodium chloride, 10 μM ZnCl. Sub 2, 10 mM CaCl2, 100 mM Tris-Cl pH7.5, 0.05% Brij-35), containing 1.0% DMSO from the substrate and inhibitor additions. The substrate concentration used in the assays is 5 μM. The assays are carried out at 20-25° C. The fluorescence changes, as a result of substrate cleavage, are monitored using an excitation wavelength of 325 nm and an emission wavelength of 405 nm. The reaction mixtures are added in duplicate into appropriate wells of a 384-well assay plate. The reaction mixtures are preincubated with the inhibitors for 60 minutes The reactions are started by the addition of MMP substrate, and the fluorescence intensity changes are measured after 60 minutes The apparent enzyme activity in the presence of an inhibitor is then compared with that in the absence of any inhibitor to determine the inhibition effect of the inhibitor. These techniques are within the knowledge of one skilled in the art. The inhibition results are expressed as the inhibitor concentrations required to effect 50% inhibition (IC50) of the enzyme activity, as compared with the control (non-inhibited) reactions.

Collagenase-3 (MMP-13) = Collagenase-3 (MMP-13) (Homo sapiens, UniProt P45452); assay: Collagenase-3 (MMP-13) inhibitory activity, fluorogenic peptide substrate cleavage; assay type: biochemical
Description: as §1
Collagenase-3 (MMP-13) inhibitory activity is determined as described above. Recombinant pro-collagenase-3 is activated with 1 mM APMA, and stored in the assay buffer after extensive dialysis in the assay buffer.

Row | IC50 (Gelatinase (MMP-2); read-out: MMP02 IC50) [nM] | IC50 (Collagenase-3 (MMP-13); read-out: MMP13 IC50) [nM] | IC50 (Gelatinase (MMP-2); read-out: IC50 (gelatinase MMP-2)) [nM] | IC50 (Collagenase-3 (MMP-13); read-out: IC50 (collagenase-3 MMP-13)) [nM] | SMILES
1 | 21700 | 12000 |  |  | NS(=O)(=O)c1cc(C(=O)c2ccc(-c3ccccc3)cc2)ccc1Cl [Example 76, 5-(Biphenyl-4-carbonyl)-2-chloro-benzenesulfonamide]
2 | 29100 | 23100 |  |  | Cc1cccc(-c2ccc(C(=O)c3ccc(Cl)c(S(N)(=O)=O)c3)cc2)c1 [Example 77, 2-Chloro-5-(3′-methyl-biphenyl-4-carbonyl)-benzenesulfonamide]
3 | 270 | 350 |  |  | CN(C)c1ccc(C(=O)c2ccc(Cl)c(S(N)(=O)=O)c2)cc1 [Example 78, 2-Chloro-5-(4-dimethylamino-benzoyl)-benzenesulfonamide]
4 | 5720 | 10400 |  |  | CCN(CC)c1ccc(C(=O)c2ccc(Cl)c(S(N)(=O)=O)c2)cc1 [Example 79, 2-Chloro-5-(4-diethylamino-benzoyl)-benzenesulfonamide]
5 |  | 113 | 55 | ~113 | NS(=O)(=O)c1cc(C(=O)c2ccc(N3CCCC3)cc2)ccc1Cl [Example 80, 2-Chloro-5-(4-pyrrolidin-1-yl-benzoyl)benzenesulfonamide]
6 | 1310 | 1010 |  |  | NS(=O)(=O)c1cc(C(=O)c2ccc(N3CC=CC3)cc2)ccc1Cl [Example 81, 2-Chloro-5-[4-(2,5-dihydro-pyrrol-1-yl)-benzoyl]-benzenesulfonamide]
7 | 1150 | 860 |  |  | NS(=O)(=O)c1cc(C(=O)c2ccc(-n3cccc3)cc2)ccc1Cl [Example 82, 2-Chloro-5-(4-pyrrol-1-yl-benzoyl)-benzenesulfonamide]
8 | 870 | 1770 |  |  | NS(=O)(=O)c1cc(C(=O)c2ccc(N3CCCCC3)cc2)ccc1Cl [Example 83, 2-Chloro-5-(4-piperidin-1-yl-benzoyl)-benzenesulfonamide]
9 | 1350 | 7540 |  |  | CC1CCCN(c2ccc(C(=O)c3ccc(Cl)c(S(N)(=O)=O)c3)cc2)C1 (centres unmarked) [Example 84, 2-Chloro-5-[4-(3-methyl-piperidin-1-yl)-benzoyl]-benzenesulfonamide]
10 | 2050 | 570 |  |  | NS(=O)(=O)c1cc(C(=O)c2ccc(N3CCC(c4ccccc4)CC3)cc2)ccc1Cl [Example 85, 2-Chloro-5-[4-(4-phenyl-piperidin-1-yl)-benzoyl]benzenesulfonamide]
11 | > 30000 | 7670 |  |  | NS(=O)(=O)c1cc(C(=O)c2ccc(N3CCC(Cc4ccccc4)CC3)cc2)ccc1Cl [Example 86, 5-[4-(4-Benzyl-piperidin-1-yl)-benzoyl]-2-chloro-benzenesulfonamide]
12 | 1740 | 1190 |  |  | CN1CCN(c2ccc(C(=O)c3ccc(Cl)c(S(N)(=O)=O)c3)cc2)CC1 [Example 87, 2-Chloro-5-[4-(4-methyl-piperazin-1-yl)-benzoyl]-benzenesulfonamide]
13 | 960 | 1840 |  |  | NS(=O)(=O)c1cc(C(=O)c2ccc(N3CCOCC3)cc2)ccc1Cl [Example 88, 2-Chloro-5-(4-morpholin-4-yl-benzoyl)-benzenesulfonamide]
14 | 2060 | 3340 |  |  | NS(=O)(=O)c1cc(C(=O)c2ccc(N3CCC3=O)cc2)ccc1Cl [Example 89, 2-Chloro-5-[4-(2-oxo-azetidin-1-yl)-benzoyl]-benzenesulfonamide]
15 | 13800 | 10800 |  |  | NS(=O)(=O)c1cc(C(=O)c2ccc(N3CCCCCC3)cc2)ccc1Cl [Example 90, 5-(4-Azepan-1-yl-benzoyl)-2-chloro-benzenesulfonamide]
16 | > 30000 | 22500 |  |  | COc1ccc(C(=O)c2ccc(Cl)c(S(=O)(=O)NCCc3ccc([N+](=O)[O-])cc3)c2)cc1 [Example 91, 2-Chloro-5-(4-methoxy-benzoyl)-N-[2-(4-nitro-phenyl)-ethyl]-benzenesulfonamide]
17 | 22800 | 20700 |  |  | NS(=O)(=O)c1cc(C(=O)c2ccc(Nc3ccccc3)cc2)ccc1Cl [Example 92, 2-Chloro-5-(4-phenylamino-benzoyl)-benzenesulfonamide]
